Series [1] has as its system normal human subcutaneous preadipocytes differentiated into adipocytes. The series can be described thus: Cytotoxicity of steviol to adipocytes (WST-8 viable cell count). In kind it is cell-based. The conditions noted are these: for Relative viable cell count (%): 10 days, Control=100%. The protocol: 5×10^5 normal human subcutaneous preadipocytes (Cat. No. PT-5020, Lonza Group AG) were precultured for 6 days in a T75 flask using a growth medium (PBM-2 medium supplemented with 10% FBS, 2 mM L-glutamine, 50 μg/mL gentamycin, and 37 ng/mL amphotericin-B, Cat. No. PT-8002, Lonza Group AG) in a CO2 incubator (37° C., 5% CO2; the same holds true for the description below). The cells were detached using 0.25% trypsin-EDTA, seeded at 10,000 cells/100 μL/well in a 96-well plate using the growth medium, and cultured overnight in a CO2 incubator. On the next day, the medium was replaced with 100 μL of a differentiation medium (PBM-2 medium supplemented with 10% FBS, 2 mM L-glutamine, 50 μg/mL gentamycin, 37 ng/mL amphotericin-B, insulin, dexamethasone, indomethacin, and 3-isobutyl-1-methylxanthine (IBMX), Cat. No. PT-8002, Lonza Group AG: the same holds true for the description below) supplemented with varying concentrations of steviol (0.001, 0.01, 0.1, 1, 10 or 100 μg/mL, dissolved in 0.1% DMSO (final concentration)). The cells were cultured for 10 days in a CO2 incubator to induce their differentiation into adipocytes. On the fourth and seventh days after the differentiation induction, the medium was replaced with a fresh medium (100 μL) having the same composition as above. A vehicle control composed of a differentiation medium supplemented with 0.1% DMSO (final concentration) was used as a negative control. Viable cell count measurement was performed by the WST-8 method. Specifically, the medium of each well after culture was replaced with a differentiation medium (100 μL) supplemented with a 1/10 amount of viable cell count measurement reagent SF, and the cells were incubated in a CO2 incubator. 30 minutes later and 90 minutes later, absorbance (450 nm, reference wavelength: 630 nm) was measured using a plate reader (VARIOSKAN FLASH, Thermo Fisher Scientific Inc.), and absorbance difference per 60 minutes was regarded as a relative viable cell count (Control=100%).
In general terms: Tetrazolium assays rely on reduction of a dye to a coloured formazan, in cell work by metabolically active cells.

Series [2] deals with adipocytes differentiated from normal human subcutaneous preadipocytes. The series can be described thus: Sugar uptake test in adipocytes (intracellular 2DG6P, Glucose Uptake-Glo). Format: cell-based. The conditions noted are these: for Relative luminescence intensity (%) (relative intracellular 2DG6P level): 4 hours, DMSO=100%. The procedure:
Normal human subcutaneous preadipocytes were precultured using the growth medium in the same manner as in Example 1. The cells were detached using 0.25% trypsin-EDTA, seeded at 10,000 cells/100 μL/well to a 96-well plate using the growth medium, and cultured overnight in a CO2 incubator. On the next day, the medium was replaced with the differentiation medium (100 μL). The cells were cultured for 10 days in a CO2 incubator to induce their differentiation into adipocytes. On the fourth and seventh days after the differentiation induction, the medium was replaced with a fresh differentiation medium (100 μL). Next, the medium was replaced with 100 μLL of a serum-free medium (PBM-2 medium supplemented with 2 mM L-glutamine, 50 μg/mL gentamycin, and 37 ng/mL amphotericin-B, Cat. No. PT-8002, Lonza Group AG), and the cells were cultured for 18 hours in a CO2 incubator. Subsequently, the medium was replaced with 100 μL of a glucose-free serum-free medium (DMEM, no glucose, Cat. No. 11966025, Thermo Fisher Scientific Inc.) supplemented with varying concentrations of steviol (10, 30 or 100 μg/mL, dissolved in 0.1% DMSO (final concentration)), and the cells were cultured for 4 hours in a CO2 incubator. A glucose-free serum-free medium supplemented with 100 μM acadesine (AICAR, Cat. No. A9978, Sigma-Aldrich Co., LLC) was used as a positive control, and a vehicle control composed of a glucose-free serum-free medium supplemented with 0.1% DMSO (final concentration) and a no-addition control composed of only a glucose-free serum-free medium were used as negative controls. After culture, intracellular 2-deoxyglucose-6-phosphate (2DG6P, 2-deoxyglucose (2DG) phosphorylation product) level was measured by the following procedures using Glucose Uptake-Glo Assay kit (Cat. No. J1341, Promega Corp.). The medium of each well was replaced with a DPBS solution (50 μL) supplemented with 1 mM 2DG. After incubation at room temperature for 10 minutes, a stop buffer (25 μL), a neutralization buffer (25 μL), and a 2DG6P detection reagent (100 μL) were added thereto. After incubation at room temperature for 60 minutes, luminescence intensity was measured using a plate reader (VARIOSKAN FLASH, Thermo Fisher Scientific Inc.), and relative luminescence intensity was regarded as a relative intracellular 2DG6P level. Significant difference among the test groups to be compared (no-addition group vs positive control group, vehicle control group vs steviol addition group) was tested by the Student's t test. The two-tailed test was conducted, and P<0.05 was regarded as having significant difference.

As to `C=C1C[C@@]23CC[C@H]4[C@@](C)(CCC[C@@]4(C)C(=O)O)[C@@H]2CC[C@]1(O)C3` [Steviol, steviol], the “cytotoxicity to adipocytes (in words)” value in series [1] (100 μg/mL steviol) was “no particular cytotoxicity to be noted was found”. Besides, the “Relative viable cell count (%)” value in series [1] (steviol 0.01 μg/mL) stood at 101.8%; in series [1] (steviol 0.1 μg/mL) it was 101.7%; in series [1] (steviol 1 μg/mL), 95.0%; in series [1] (steviol 10 μg/mL), 103.6%; in series [1] (steviol 100 μg/mL), 93.1%. Also, the “sugar uptake in adipocytes (in words)” value in series [2] (10, 30 or 100 μg/mL) is “promoted sugar uptake in adipocytes in a concentration-dependent manner”. Also, the “Relative luminescence intensity (%) (relative intracellular 2DG6P level)” value is on record as 109.6% in series [2] (steviol 10 μg/mL), 142.5% in series [2] (steviol 30 μg/mL) and 216.2% in series [2] (steviol 100 μg/mL).

The values above are taken from patent US20230057359A1, “NOVEL USE OF STEVIOL” (SUNTORY HOLDINGS LIMITED, priority 2019, published 2023).
